Laboratory results as given in article PMC10794144, “A novel antibiotic class targeting the lipopolysaccharide transporter” (Nature, 2024).
Converted amounts (≈) assume the structure as drawn. Like-named read-outs stand apart in the source and are kept apart here.

Assays:
E. coli ATCC 25922 = assay: microbe, parasite or virus in culture
In short: (§1)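 MIC was taken as the lowest concentration without visible growth, or past which OD600 no longer fell. Testing followed CLSI M07 and M100 broth microdilution, using 0.5 McFarland-derived inocula in CAMHB (LB for A. baylyi isolates).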

A. baumannii = assay: microbe, parasite or virus in culture
In short: as §1

Structure (SMILES): CN1C(=O)[C@H](CCCCN)NC(=O)[C@H](CCCN)NCc2cccnc2Sc2c(Cl)ccc(Cl)c2CNC(=O)[C@@H]1Cc1c[nH]c2ccccc12 [RO7075573]
- MIC (E. coli ATCC 25922; CAMHB, mode of at least three replicates (RO7036668 one replicate)): >64 µg/mL
- MIC (E. coli ATCC 25922; Escherichia coli, ATCC25922): > 64 µg/mL
- MIC 100% (E. coli ATCC 25922; Study LGC281440): >64 µg/mL
- MIC 100% (E. coli ATCC 25922; Study LGC282160): >64 µg/mL
- MIC 100% (E. coli ATCC 25922; Study LGC284879): >64 µg/mL
- MIC 100% (E. coli ATCC 25922; Study LGC285582): >64 µg/mL
- MIC 100% (E. coli ATCC 25922; Study LGC286210): >64 µg/mL
- MIC 100% (E. coli ATCC 25922; Study LGC293598): >64 µg/mL
- MIC 100% (E. coli ATCC 25922; Study LGC294355): >64 µg/mL
- MIC 100% (E. coli ATCC 25922; Study LGC295147): >64 µg/mL
- MIC 100% (E. coli ATCC 25922; Study LGC296813): >64 µg/mL
- MIC 100% (E. coli ATCC 25922; Study LGC299544): >64 µg/mL
- MIC 100% (E. coli ATCC 25922; Study LGC301026): >64 µg/mL
- MIC 100% (E. coli ATCC 25922; Study LGC308175): >64 µg/mL
- MIC 100% (E. coli ATCC 25922; Study ROC010): >64 µg/mL
- MIC 100% (E. coli ATCC 25922; Study ROC012): >64 µg/mL
- MIC 80% (A. baumannii; ATCC 17978, Study LGC301026): 0.12 µg/mL (≈ 0.162 µM)
- MIC 100% (A. baumannii; ATCC 17978, Study LGC301026): 0.12 µg/mL (≈ 0.162 µM)
- MIC 80% (A. baumannii; ATCC 17978, Study LGC308175): ≤0.06 µg/mL
- MIC 100% (A. baumannii; ATCC 17978, Study LGC308175): ≤0.06 µg/mL
- MIC 80% (A. baumannii; ATCC 19606, Study LGC281440): 0.12 µg/mL (≈ 0.162 µM)
- MIC 100% (A. baumannii; ATCC 19606, Study LGC281440): 0.12 µg/mL (≈ 0.162 µM)
- MIC 80% (A. baumannii; ATCC 19606, Study LGC282160): 0.25 µg/mL (≈ 0.338 µM)
- MIC 100% (A. baumannii; ATCC 19606, Study LGC282160): 0.25 µg/mL (≈ 0.338 µM)
- MIC 80% (A. baumannii; ATCC 19606, Study LGC284879): 0.25 µg/mL (≈ 0.338 µM)
- MIC 100% (A. baumannii; ATCC 19606, Study LGC284879): 0.25 µg/mL (≈ 0.338 µM)
- MIC 80% (A. baumannii; ATCC 19606, Study LGC285582): 0.12 µg/mL (≈ 0.162 µM)
- MIC 100% (A. baumannii; ATCC 19606, Study LGC285582): 0.25 µg/mL (≈ 0.338 µM)
- MIC 80% (A. baumannii; ATCC 19606, Study LGC286210): 0.12 µg/mL (≈ 0.162 µM)
- MIC 100% (A. baumannii; ATCC 19606, Study LGC286210): 0.12 µg/mL (≈ 0.162 µM)
- MIC 80% (A. baumannii; ATCC 19606, Study LGC293598): 0.12 µg/mL (≈ 0.162 µM)
- MIC 100% (A. baumannii; ATCC 19606, Study LGC293598): 0.25 µg/mL (≈ 0.338 µM)
- MIC 80% (A. baumannii; ATCC 19606, Study LGC294355): 0.12 µg/mL (≈ 0.162 µM)
- MIC 100% (A. baumannii; ATCC 19606, Study LGC294355): 0.12 µg/mL (≈ 0.162 µM)
- MIC 80% (A. baumannii; ATCC 19606, Study LGC295147): 0.25 µg/mL (≈ 0.338 µM)
- MIC 100% (A. baumannii; ATCC 19606, Study LGC295147): 0.25 µg/mL (≈ 0.338 µM)
- MIC 80% (A. baumannii; ATCC 19606, Study LGC296813): 0.12 µg/mL (≈ 0.162 µM)
- MIC 100% (A. baumannii; ATCC 19606, Study LGC296813): 0.25 µg/mL (≈ 0.338 µM)
- MIC 80% (A. baumannii; ATCC 19606, Study LGC299544): 0.12 µg/mL (≈ 0.162 µM)
- MIC 100% (A. baumannii; ATCC 19606, Study LGC299544): 0.12 µg/mL (≈ 0.162 µM)
- MIC 80% (A. baumannii; ATCC 19606, Study LGC301026): 0.12 µg/mL (≈ 0.162 µM)
- MIC 100% (A. baumannii; ATCC 19606, Study LGC301026): 0.25 µg/mL (≈ 0.338 µM)
- MIC 80% (A. baumannii; ATCC 19606, Study LGC308175): 0.12 µg/mL (≈ 0.162 µM)
- MIC 100% (A. baumannii; ATCC 19606, Study LGC308175): 0.12 µg/mL (≈ 0.162 µM)
- MIC 80% (A. baumannii; ATCC 19606, Study ROC010): 0.25 µg/mL (≈ 0.338 µM)
- MIC 100% (A. baumannii; ATCC 19606, Study ROC010): 0.5 µg/mL (≈ 0.676 µM)
- MIC 80% (A. baumannii; ATCC 19606, Study ROC012): 0.12 µg/mL (≈ 0.162 µM)
- MIC 100% (A. baumannii; ATCC 19606, Study ROC012): 0.25 µg/mL (≈ 0.338 µM)
- MIC90 (A. baumannii; Acinetobacter baumannii, 10 MDR isolates, CAMHB, MCPs read at 80% growth inhibition): 0.5 µg/mL (≈ 0.676 µM)
- MIC (A. baumannii; Acinetobacter baumannii, ATCC17978, ATCC 17978, CAMHB, MCPs read at 80% inhibition): 0.12 µg/mL (≈ 0.162 µM)
- MIC (A. baumannii; Acinetobacter baumannii, ATCC17978, ATCC 17978, CAMHB, one replicate, MCPs read at 80% growth inhibition): ≤ 0.06 µg/mL
- MIC (A. baumannii; Acinetobacter baumannii, ATCC19606, ATCC 19606, CAMHB, MCPs read at 80% growth inhibition): 0.12 µg/mL (≈ 0.162 µM)
- MIC (A. baumannii; Acinetobacter baumannii, ATCC19606, ATCC 19606, CAMHB, MCPs read at 80% inhibition): 0.12 µg/mL (≈ 0.162 µM)
- MIC (A. baumannii; Acinetobacter baumannii, ROB08701, CAMHB, MCPs read at 80% inhibition): 0.12 µg/mL (≈ 0.162 µM)
- MIC (A. baumannii; Acinetobacter baumannii, ROB08702, CAMHB, MCPs read at 80% inhibition): 0.12 µg/mL (≈ 0.162 µM)
- MIC (A. baumannii; Acinetobacter baumannii, ROB08703, CAMHB, MCPs read at 80% inhibition): 0.25 µg/mL (≈ 0.338 µM)
- MIC (A. baumannii; Acinetobacter baumannii, ROB08704, CAMHB, MCPs read at 80% inhibition): 0.5 µg/mL (≈ 0.676 µM)
- MIC (A. baumannii; Acinetobacter baumannii, ROB08705, CAMHB, MCPs read at 80% inhibition): ≤ 0.06 µg/mL
- MIC (A. baumannii; Acinetobacter baumannii, ROB08706, CAMHB, MCPs read at 80% inhibition): 0.5 µg/mL (≈ 0.676 µM)
- MIC (A. baumannii; Acinetobacter baumannii, ROB08707, CAMHB, MCPs read at 80% inhibition): 0.12 µg/mL (≈ 0.162 µM)
- MIC (A. baumannii; Acinetobacter baumannii, ROB08708, CAMHB, MCPs read at 80% inhibition): 0.12 µg/mL (≈ 0.162 µM)
- MIC (A. baumannii; Acinetobacter baumannii, ROB08709, CAMHB, MCPs read at 80% inhibition): 0.12 µg/mL (≈ 0.162 µM)
- MIC (A. baumannii; Acinetobacter baumannii, ROB08710, CAMHB, MCPs read at 80% inhibition): 0.12 µg/mL (≈ 0.162 µM)
- MIC (A. baumannii; Acinetobacter baumannii, read-out: MIC read at 80% growth inhibition, CAMHB): 2 µg/mL (≈ 2.7 µM)
- MIC (A. baumannii; Acinetobacter baumannii, read-out: MIC read at 100% growth inhibition, CAMHB): > 64 µg/mL
- MIC 80% (A. baumannii; ROB08701, Study LGC281440): 0.12 µg/mL (≈ 0.162 µM)
- MIC 100% (A. baumannii; ROB08701, Study LGC281440): 0.25 µg/mL (≈ 0.338 µM)
- MIC 80% (A. baumannii; ROB08701, Study LGC282160): 0.12 µg/mL (≈ 0.162 µM)
- MIC 100% (A. baumannii; ROB08701, Study LGC282160): 1 µg/mL (≈ 1.35 µM)
- MIC 80% (A. baumannii; ROB08701, Study LGC284879): 0.25 µg/mL (≈ 0.338 µM)
- MIC 100% (A. baumannii; ROB08701, Study LGC284879): 0.5 µg/mL (≈ 0.676 µM)
- MIC 80% (A. baumannii; ROB08701, Study LGC285582): 0.12 µg/mL (≈ 0.162 µM)
- MIC 100% (A. baumannii; ROB08701, Study LGC285582): 64 µg/mL (≈ 86.5 µM)
- MIC 80% (A. baumannii; ROB08701, Study LGC286210): 0.12 µg/mL (≈ 0.162 µM)
- MIC 100% (A. baumannii; ROB08701, Study LGC286210): 64 µg/mL (≈ 86.5 µM)
- MIC 80% (A. baumannii; ROB08701, Study LGC293598): 0.12 µg/mL (≈ 0.162 µM)
- MIC 100% (A. baumannii; ROB08701, Study LGC293598): 0.25 µg/mL (≈ 0.338 µM)
- MIC 80% (A. baumannii; ROB08701, Study LGC294355): 0.12 µg/mL (≈ 0.162 µM)
- MIC 100% (A. baumannii; ROB08701, Study LGC294355): 0.25 µg/mL (≈ 0.338 µM)
- MIC 80% (A. baumannii; ROB08701, Study LGC295147): 0.12 µg/mL (≈ 0.162 µM)
- MIC 100% (A. baumannii; ROB08701, Study LGC295147): 0.12 µg/mL (≈ 0.162 µM)
- MIC 80% (A. baumannii; ROB08701, Study LGC296813): 0.12 µg/mL (≈ 0.162 µM)
- MIC 100% (A. baumannii; ROB08701, Study LGC296813): 0.25 µg/mL (≈ 0.338 µM)
- MIC 80% (A. baumannii; ROB08701, Study LGC299544): 0.12 µg/mL (≈ 0.162 µM)
- MIC 100% (A. baumannii; ROB08701, Study LGC299544): 64 µg/mL (≈ 86.5 µM)
- MIC 80% (A. baumannii; ROB08701, Study LGC301026): 0.5 µg/mL (≈ 0.676 µM)
